Tests used:
[1] = system: healthy middle-aged men and women; assay: Cognitive Demand Battery: Serial Sevens subtraction task; format: in vivo, human; details: 4 g oral; at 20 min of battery; vs placebo
Procedure: Procedure: Each participant attended the research facility on a single day for a period of 3.5 hours during which they completed 2 testing sessions, 1 baseline test and 1 post-treatment test. All testing took place between 08:00-12:00 and 13:00-18:00. On testing days, participants abstained from consuming any stimulants (i.e., tea, coffee, other caffeine containing products) for 2 hours before their visit. All volunteers were fasted for 2 hours before their visit. Each study day comprised of a practice module, a pre-treatment baseline testing session on the mood and cognitive measures, this was immediately followed by a pre-treatment blood glucose measurement, and administration of treatment. Participants were allocated, using a random number generator randomization code, to one of three treatment conditions: sucrose (icing sugar), placebo (rice flour) and plant saccharides (Ambrotose®Complex). Given the different densities of the three supplement conditions, each treatment was weighed and measured with scoop amounts to provide equated 4 g doses. The supplement was delivered to each participant on a tablespoon with 100 ml of water. […] All data were analyzed using SPSS 17 statistical package as “change from pre dose baseline scores', using Analysis of Variance (ANOVA). […]

[2] = system: healthy middle-aged men and women; assay: Rey Auditory-Verbal Learning Test (RAVLT), learning and memory; format: in vivo, human; details: 4 g oral single dose; mean (SD)
Procedure: Procedure: Each participant attended the research facility on a single day for a period of 3.5 hours during which they completed 2 testing sessions, 1 baseline test and 1 post-treatment test. All testing took place between 08:00-12:00 and 13:00-18:00. On testing days, participants abstained from consuming any stimulants (i.e., tea, coffee, other caffeine containing products) for 2 hours before their visit. All volunteers were fasted for 2 hours before their visit. Each study day comprised of a practice module, a pre-treatment baseline testing session on the mood and cognitive measures, this was immediately followed by a pre-treatment blood glucose measurement, and administration of treatment. Participants were allocated, using a random number generator randomization code, to one of three treatment conditions: sucrose (icing sugar), placebo (rice flour) and plant saccharides (Ambrotose®Complex). Given the different densities of the three supplement conditions, each treatment was weighed and measured with scoop amounts to provide equated 4 g doses. The supplement was delivered to each participant on a tablespoon with 100 ml of water. Each participant was instructed by the inventors to carefully consume the powder, without breathing in or out over it, by putting it in their mouth and washing it down with the water provided within 5 minutes. Additional water was provided on request. Participants were then instructed to rest for 30 minutes to allow for absorption. Following the 30 minute absorption time, a finger-capillary blood glucose measurement was taken. The post treatment testing session then commenced with alternate forms of the RAVLT and Cognitive demand battery. Following completion of the testing session, a final blood glucose measurement was taken. […] Learning and Memory: The Rey Auditory-Verbal Learning Test (RAVLT) was used to assess immediate recall, delayed recall, learning and recognition memory. The examiner reads aloud 15 nouns (list A) over five trials and after each trial, participants are asked to recall, in any order, as many of the 15 words as possible. Scores for the 5 trials are summed to produce a measure of immediate recall, the difference between trial 5 and 1 is used as a measure of learning. After a sixth trial consisting of 15 different words (list B) participants are again required to recall the words that were presented in list A (trial 7), and then again after an interval of 60 minutes (trial 8). The scores from trials 7 and 8 are used to produce a measure of delayed recall, the difference between the words recalled in trials 8 and 7 is used as a measure of forgetting, the difference between trial 7 and trial 5 is used as a score of interference. After trial 8, participants are presented with a sheet of 50 words containing the words from lists A and B among 20 distracter words. Participants are asked to recognize the words from lists A and B and indicate the list they came from. Each word correctly identified is awarded one point producing a measure of recognition. Statistical Analysis: The primary outcomes were memory performance, mood and performance on the Cognitive Demand Battery (CDB) and the subjective ratings of mental fatigue. All data were analyzed using SPSS 17 statistical package as “change from pre dose baseline scores', using Analysis of Variance (ANOVA). To test for chance baseline differences which may have skewed change-from-baseline scores, prior to the primary statistical analysis, one-way ANOVA's with Bonferroni correction, were run all on all baseline demographics, general mood and well-being measures, and all pre-dose baseline measures to determine any potential covariates in outcomes.

## OC[C@H]1O[C@@](CO)(O[C@H]2O[C@H](CO)[C@@H](O)[C@H](O)[C@H]2O)[C@@H](O)[C@@H]1O [Sucrose, sucrose]
[1]
  Serial 7s number of correct answers, pairwise comparison: making significantly more correct responses than the placebo group (p=0.04)
[2]
  RAVLT Forgetting (trial 8-trial7), post-dose change from baseline score: −1.69 (3.06)
  RAVLT Interference (trial 7-trial 5), post-dose change from baseline score: −1.34 (2.18)
  RAVLT Learning (trial 5-trial1), post-dose change from baseline score: 0.07 (2.78)
  RAVLT Recog A, post-dose change from baseline score: −2.38 (2.46)
  RAVLT Recog B, post-dose change from baseline score: −3.38 (3.55)
  RAVLT Sum Immediate Recall, post-dose change from baseline score: −1.88 (5.83)
  RAVLT Sum Recognition, post-dose change from baseline score: −5.76 (4.91)
  RAVLT Sum delayed recall, post-dose change from baseline score: −4.76 (4.18)
  RAVLT Trial 1, post-dose change from baseline score: −0.26 (2.23)
  RAVLT Trial 2, post-dose change from baseline score: −0.57 (2.13)
  RAVLT Trial 3, post-dose change from baseline score: −0.42 (1.83)
  RAVLT Trial4, post-dose change from baseline score: −0.42 (1.72)
  RAVLT Trial 5, post-dose change from baseline score: −0.19 (1.72)
  RAVLT Trial 6 (List B), post-dose change from baseline score: −0.84 (2.16)
  RAVLT Trial 7, post-dose change from baseline score: −1.53 (2.37)
  RAVLT Trial 8, post-dose change from baseline score: −3.23 (2.80)

From patent US20120276208A1, “ACUTE COGNITIVE AND MOOD EFFECTS OF PLANT POLYSACCHARIDES IN ADULT HUMAN SUBJECTS” (UNIVERSITY OF SOUTH AUSTRALIA, priority 2011, published 2012)
